In publication PMC7238232, “Acamprosate Is a Substrate of the Human Organic Anion Transporter (OAT) 1 without OAT3 Inhibitory Properties: Implications for Renal Acamprosate Secretion and Drug–Drug Interactions” (Pharmaceutics, 2020):
Several values for one entry are separate records, joined by “and”; a condition that tells them apart may be missing. Equal entries are not always repeated. Where two headings read alike, the source gives them in different places.

How the values were obtained:
human OAT1 = details: cited from earlier work; for Km: read-out: Km of other OAT1 substrates
[1] = probenecid, oral, cited from earlier work
[2] = Clinical pharmacokinetics in humans (literature); details: probenecid, oral, calculated from Cmax and fu
HEK293-Flp-In mock cells [3] = assay: Control uptake studies in HEK293-Flp-In mock cells; details: for effect on uptake of [3H]-E3S in mock cells: 0.02 µM [3H]-E3S, 200 µM E3S, 300 µM or 0.2–1022 µM probenecid, 10,000 µM acamprosate, Lab. 2; for effect on uptake of [14C]-PAH in mock cells: 9.5 µM [14C]-PAH, 200 µM PAH, 300 µM or 0.02–1022 µM probenecid, acamprosate
Method: All uptake experiments were performed on 24- or 96-well plates. Before the experiment initiation, the cells were incubated with either 500 or 200 µL∙well^−1 prewarmed buffer for 10 min at 37 °C in a microplate incubator (VWR International AB, Stockholm, Sweden), without shaking. […] The experiment was stopped by adding 200 µL∙well^−1 of ice-cold buffer and subsequent rinse three times with the same amount of buffer. […] A total of 50 µL of cell lysate from each well was transferred to 96-well Luma plates bottom coated with dry scintillant. Then, 2∙20 µL of each donor and three 50 µL blank samples were applied on the same plate. The dry plates were covered with transparent seals and analyzed using a TopCount NXT Microplate Scintillation and Luminescence Counter (Perkin Elmer, Waltham, MA, USA). The remaining 20 µL cell lysate was neutralized with 20 µL 1M HCl∙well^−1, samples were mixed thoroughly and the total protein content in all the wells was measured using a BCA protein assay kit, microplate method, and a Tecan Safire II fluorometer (Tecan Austria GmbH, Grödig, Austria). […] The total protein content was measured by using a BCA protein assay kit and a FLUOStar Omega fluorescence microplate reader (BMG Labtech, Ortenberg, Germany). The protein assay for the OAT3 and mock cell lines was performed in four independent wells of each cell line, seeded and treated in the same manner as the cells used in the uptake assay. For all the OAT1, OAT3, and mock isotope uptake studies, the radiolabelled tracer accumulation (pmol) in each well was calculated by first determining the activity of the isotope (DPM∙pmol^−1) from the radioactivity (DPM) of the donor sample divided by the theoretical isotope concentration (pmol), then dividing the total radioactivity in the well (DPM) to the specific activity of the isotope (DPM∙pmol^−1).

OAT = test system: OAT; parameters: method as in PMID 23085876; details: OAT mediated DDI by probenecid, compared to control; cited from earlier work
OAT3 = target: T1, OAT3 (Homo sapiens, UniProt Q8TCC7); assay: [3H]-E3S uptake and its inhibition in HEK293-Flp-In OAT3 cells; format: cell-based; details: 0.02 µM [3H]-E3S; 200 µM E3S, 300 µM probenecid, 1000 or 10,000 µM acamprosate; Lab. 2
T1 sequence (Q8TCC7 1-542): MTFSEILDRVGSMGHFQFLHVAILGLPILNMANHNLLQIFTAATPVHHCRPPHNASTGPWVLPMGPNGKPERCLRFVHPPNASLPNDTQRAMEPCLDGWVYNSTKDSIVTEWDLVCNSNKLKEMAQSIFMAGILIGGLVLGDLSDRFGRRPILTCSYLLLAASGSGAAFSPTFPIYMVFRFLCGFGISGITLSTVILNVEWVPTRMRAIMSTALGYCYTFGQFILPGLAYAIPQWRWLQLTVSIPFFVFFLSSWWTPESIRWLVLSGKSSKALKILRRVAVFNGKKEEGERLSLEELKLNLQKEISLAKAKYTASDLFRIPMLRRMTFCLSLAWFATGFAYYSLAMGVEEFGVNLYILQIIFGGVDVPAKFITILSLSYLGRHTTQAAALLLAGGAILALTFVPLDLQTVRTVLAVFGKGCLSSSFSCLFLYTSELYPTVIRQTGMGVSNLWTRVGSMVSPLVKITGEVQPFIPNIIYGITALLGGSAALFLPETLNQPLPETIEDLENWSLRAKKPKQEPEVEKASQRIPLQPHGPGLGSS
Method: All uptake experiments were performed on 24- or 96-well plates. Before the experiment initiation, the cells were incubated with either 500 or 200 µL∙well^−1 prewarmed buffer for 10 min at 37 °C in a microplate incubator (VWR International AB, Stockholm, Sweden), without shaking. […] The experiment was stopped by adding 200 µL∙well^−1 of ice-cold buffer and subsequent rinse three times with the same amount of buffer. In Lab. 1 the sample analysis of the OAT1/OAT3/mock studies consisted in removing the rinsing buffer and lysing the cells with 70 µL 1M NaOH, following by incubation for 60 min at 37 °C and 100 rpm. A total of 50 µL of cell lysate from each well was transferred to 96-well Luma plates bottom coated with dry scintillant. Then, 2∙20 µL of each donor and three 50 µL blank samples were applied on the same plate. The dry plates were covered with transparent seals and analyzed using a TopCount NXT Microplate Scintillation and Luminescence Counter (Perkin Elmer, Waltham, MA, USA). The remaining 20 µL cell lysate was neutralized with 20 µL 1M HCl∙well^−1, samples were mixed thoroughly and the total protein content in all the wells was measured using a BCA protein assay kit, microplate method, and a Tecan Safire II fluorometer (Tecan Austria GmbH, Grödig, Austria). For the experiments in Lab. 2, the cells were lysed by adding 200 µL 0.1% Triton X-100 and incubated for 5 min at 37 °C and 100 rpm. […] The total protein content was measured by using a BCA protein assay kit and a FLUOStar Omega fluorescence microplate reader (BMG Labtech, Ortenberg, Germany). The protein assay for the OAT3 and mock cell lines was performed in four independent wells of each cell line, seeded and treated in the same manner as the cells used in the uptake assay. For all the OAT1, OAT3, and mock isotope uptake studies, the radiolabelled tracer accumulation (pmol) in each well was calculated by first determining the activity of the isotope (DPM∙pmol^−1) from the radioactivity (DPM) of the donor sample divided by the theoretical isotope concentration (pmol), then dividing the total radioactivity in the well (DPM) to the specific activity of the isotope (DPM∙pmol^−1).
A range of preincubation solutions was prepared at the same concentrations of acamprosate applied in the inhibition assays. Acamprosate was dissolved in HBSS buffered with 10 mM HEPES and the pH was adjusted to 7.40 ± 0.01. The preincubation solutions were prewarmed to 37 °C and applied to the corresponding cells after removing the cell growth medium. The preincubation was done for 3 h, at 37 °C, without shaking. After the preincubation, the solutions were removed, and the inhibition experiment was performed as described in the Section 2.6.
The obtained intracellular amounts (pmol) were normalized to the assay time (min) and cell surface area (cm^2) or protein amount (mg protein) to obtain a term hereafter referred to as uptake rate. […] Assuming competitive interaction, equilibrium dissociation constants, Ki, were calculated from the IC50 value for each substrate/inhibitor pair, at substrate Km, using the Cheng–Prusoff equation [24].

HEK293-Flp-In OAT3 cells = assay: CellTiter-Glo cell viability assay, OAT3 transfected cells
HEK293-Flp-In OAT1 cells = assay: CellTiter-Glo cell viability assay, OAT1 transfected cells
HEK293-Flp-In mock cells [4] = assay: CellTiter-Glo cell viability assay, mock cells
human kidney slices = test system: human kidney slices; parameters: method as in PMID 17255469; details: read-out: Km of PAH; cited from earlier work
[5] = substrate: CC(=O)NCCCS(=O)(=O)O; assay: Acamprosate intracellular uptake and inhibition of uptake in HEK293-Flp-In OAT1 cells (LC/MS-MS); format: cell-based, human; details: other: HEK293-Flp-In OAT1 cells, 10 min, pH 7.4, Lab. 1
[6] = 3 h, 1000 µM p-aminohippuric acid, 200 µM estrone-3-sulfate (Figure 8A)

For `CN(Cc1cnc2nc(N)nc(N)c2n1)c1ccc(C(=O)N[C@@H](CCC(=O)O)C(=O)O)cc1` [methotrexate], the Km (human OAT1) is listed as 554 to 724 µM.

For `Nc1nc(O)c2ncn(COC(CO)CO)c2n1` [ganciclovir], the Km (human OAT1) is listed as 896 µM.

In the case of `CC(=O)Nc1ccc(O)cc1` [acetaminophen], the IC50 (human OAT1; read-out: IC50 of other drug substances inhibiting OAT1) is given as 639 µM.

In the case of `Nc1nc2c(ncn2COCCO)c(=O)[nH]1` [acyclovir], the Km (human OAT1) is listed as 342 µM.

In the case of `CCCN(CCC)S(=O)(=O)c1ccc(C(=O)O)cc1` [probenecid], the Cmax ([1]; 500 mg) is given as 124 ± 30 µM, the “fu, fraction unbound in plasma” value ([1]; 500 mg) is given as 0.07 [53] and the Cmax ([1]; 1000 mg) is given as 244 ± 94 µM. For the same molecule, the “fu, fraction unbound in plasma” value ([1]; 1000 mg) was 0.11 [53], the Cmax ([1]; 2000 mg) was 521 ± 166 µM and the “fu, fraction unbound in plasma” value ([1]; 2000 mg) was 0.17 [53]. The “Cmax,u” value ([2]; 500 mg) was 8.66 ± 2.09 µM, the “Cmax,u” value ([2]; 1000 mg) was 26.83 ± 10.37 µM and the “Cmax,u” value ([2]; 2000 mg) was 88.53 ± 28.24 µM. For the same molecule, the “effect on uptake of [3H]-E3S in mock cells” value (HEK293-Flp-In mock cells [3]) was “no inhibition”, the “effect on uptake of [3H]-E3S in mock cells” value (HEK293-Flp-In mock cells [3]; listed as Probenecid) was “no inhibitory effect” and the “effect on uptake of [14C]-PAH in mock cells” value (“effect on uptake of [14C]-PAH” below) (HEK293-Flp-In mock cells [3]; Lab. 1) was “no effect”. For the same molecule, the “effect on uptake of [14C]-PAH” value (HEK293-Flp-In mock cells [3]; Lab. 1, listed as Probenecid) was “no inhibitory effect”, the “effect on acamprosate uptake in mock cells” value (HEK293-Flp-In mock cells [3]; 200 µM acamprosate, 0.02–1022 µM probenecid, Lab. 1) was “no inhibitory effect” and the “change in AUC of other inhibited drugs” value (OAT) was 1.1–2.4 fold. For the same molecule, the “change in CLR of other inhibited drugs” value (OAT) was 0.3–0.7 fold and the “effect on uptake of [3H]-E3S in OAT3 expressing cells” value (OAT3) was “significantly decreased”.

With `CCCCCCCCCCCCOS(=O)(=O)[O-].[Na+]` [SDS, sodium dodecyl sulfate] the “decrease in cell viability” value (HEK293-Flp-In OAT3 cells; 0.5% SDS, 3 h incubation) was “more than 95%”, the “decrease in cell viability” value (HEK293-Flp-In OAT1 cells; 0.5% SDS, 3 h incubation) was “approximately 50%” and the “decrease in cell viability” value (HEK293-Flp-In mock cells [4]; 0.5% SDS, 3 h incubation) was “more than 95%”.

In the case of `O=S(=O)(O)CCSSCCS(=O)(=O)O` [dimesna], the Km (human OAT1) is given as 636 µM.

For `Nc1ccc(C(=O)NCC(=O)O)cc1` [p-aminohippuric acid], the “effect on cell viability” value (HEK293-Flp-In OAT3 cells; [6]) is listed as “did not decrease cell viability”, the “effect on cell viability” value (HEK293-Flp-In OAT1 cells; 3 h, 1000 µM p-aminohippuric acid, 200 µM estrone-3-sulfate (Figure 8B)) is listed as “did not decrease cell viability” and the Km (human kidney slices) is listed as roughly 39 µM. For the same molecule, the “effect on cell viability” value (HEK293-Flp-In mock cells [4]; [6]) was “did not decrease cell viability”, the “effect on uptake of [14C]-PAH” value (HEK293-Flp-In mock cells [3]; Lab. 1) was “no effect” and the “saturability of dose-dependent substrate uptake in mock cells” value (HEK293-Flp-In mock cells [3]; same substrate concentrations as in transfected cells, acamprosate 0.33–3300 µM) was “not saturable”.

B1: OAT1 (Homo sapiens) (protein)
chain: MAFNDLLQQVGGVGRFQQIQVTLVVLPLLLMASHNTLQNFTAAIPTHHCRPPADANLSKNGGLEVWLPRDRQGQPESCLRFTSPQWGLPFLNGTEANGTGATEPCTDGWIYDNSTFPSTIVTEWDLVCSHRALRQLAQSLYMVGVLLGAMVFGYLADRLGRRKVLILNYLQTAVSGTCAAFAPNFPIYCAFRLLSGMALAGISLNCMTLNVEWMPIHTRACVGTLIGYVYSLGQFLLAGVAYAVPHWRHLQLLVSAPFFAFFIYSWFFIESARWHSSSGRLDLTLRALQRVARINGKREEGAKLSMEVLRASLQKELTMGKGQASAMELLRCPTLRHLFLCLSMLWFATSFAYYGLVMDLQGFGVSIYLIQVIFGAVDLPAKLVGFLVINSLGRRPAQMAALLLAGICILLNGVIPQDQSIVRTSLAVLGKGCLAASFNCIFLYTGELYPTMIRQTGMGMGSTMARVGSIVSPLVSMTAELYPSMPLFIYGAVPVAASAVTVLLPETLGQPLPDTVQDLESRWAPTQKEAGIYPRKGKQTRQQQEHQKYMVPLQASAQEKNGL
notes: expressed in transfected cells; host or cells: HEK293-Flp-In
In the case of B1, the Km [5] is reported as 700 µM and 698 ± 192 µM.
